Results on 94 compounds are retold here after PubChem BioAssay AID1159557 (GlaxoSmithKline (GSK), 2015).

The assay has as its system Trypanosoma brucei growth inhibition. As to the kind of experiment: T. brucei growth inhibition (AID 1159557).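 Also: parasites exposed to compound for 48 h before the resazurin readout.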

Active and inactive are the calls of the source. No rule for the calls is given here. Some results are limits rather than exact numbers.

In the case of `Cc1nn(-c2nc(N)nc(-c3ccccn3)n2)c(C)c1Cc1ccccc1`, the IC50 is > 40000 nM (inactive). As to `O=C(CSc1ccc(-c2ccccn2)nn1)Nc1ccc(Cl)cc1`, the concentration for half-maximal inhibition (IC50) was 10000 nM.

Take `O=C(NCCc1cccnc1)c1ccc(-c2ccccc2F)o1`: the 50% inhibitory concentration (IC50) was 32000 nM.

As to `O=C(Nc1ccc(C(F)(F)F)cc1)NC1(C(=O)NCc2ccco2)CCCCC1`, the half-inhibitory concentration (IC50) is 790 nM.

As to `COc1ccc(-c2nc3ccncc3c(=O)n2CCOc2ccccc2)cc1`, the 50% inhibitory concentration (IC50) was 25000 nM. Under `Cc1[nH]n2c(=O)c3c(nc2c1-c1ccc(Cl)cc1)CCCC3` stands 160 nM; under `Cc1cc(Br)cc(C(=O)c2c(C(C)C)c(=O)[nH]c(=O)n2Cc2ccnc(N)c2)c1`, 13000 nM; under `COc1ccc(OC)c(S(=O)(=O)N(Cc2c(F)cccc2F)[C@@H]2CCN(C#N)C2)c1`, 630 nM. The value for `COc1ccccc1CNc1cc(C2CC2)nc(-c2nccn2C)n1` was 2500 nM; that for `Clc1ccc(C(CC2CCCCO2)Cn2cncn2)c(Cl)c1` (centres undefined) was > 40000 nM (inactive); that for `c1cc(-c2ncc(-c3ccn[nH]3)s2)ccn1` was 20000 nM.

In the case of `O=C(CSc1nnc(-c2ccc3c(c2)OCO3)o1)N(Cc1ccco1)CC(F)(F)F`, the IC50 was > 40000 nM (inactive). For the compound `COc1ccc(C2=NCC(CSc3nnc(-c4ccc5c(c4)OCO5)o3)S2)cc1` (centres undefined), the half-maximal inhibitory concentration (IC50) was 10000 nM.

For the compound `O=c1cc(NCCCNC2CCOc3c(I)cc(Cl)cc32)[nH]c2ccccc12` (centres undefined), the IC50 is 10 nM. As to `N#Cc1cccc(CNc2ccc(-c3cnn(CC4CC4)c(=O)c3C#N)cc2)c1`, the IC50 was 10000 nM.

For `CCCNC(=O)Nc1cccc(-c2nc3ncccc3o2)c1`, the 50% inhibitory concentration (IC50) is 500 nM. For `O=[N+]([O-])c1ccc(C2=CC(c3ccccc3)=NCCN2)cc1`, the concentration for half-maximal inhibition (IC50) was 6300 nM. As for `COc1cccc(-c2c(C)nn(-c3nc(N)nc(-c4ccccn4)n3)c2N)c1`, the IC50 is > 40000 nM (inactive). As to `Cc1ccccc1OCC(=O)N1CCCN(c2cccnn2)CC1`, the IC50 was > 40000 nM (inactive). Under `CN(Cc1ccccc1)Cc1nnnn1C1CCN(Cc2ccc(-n3ccnc3)cc2)CC1` stands > 40000 nM (inactive); under `Cc1ncsc1CNc1cnc(-c2ccc3c(c2)OCCO3)c(-c2cnn(C)c2)c1`, 130 nM; under `O=c1cc(NCCCNCc2cc(C(F)(F)F)cs2)[nH]c2ccccc12`, 320 nM. Under `COc1cccc(S(=O)(=O)Nc2ccc3c(c2)CC(N2CCC(NC(=O)C4CC4)CC2)C3)c1` (centres undefined) stands 1000 nM. As to `COc1ccc(-c2cnc(C)o2)cc1S(=O)(=O)Nc1ccc(C)cc1C`, the IC50 was 6300 nM.

For the compound `OCCCNc1nc(Nc2ccncc2)nc2ccccc12`, the IC50 is 25000 nM. The value for `CCCN1CCN(Cc2ccc(S(=O)(=O)Nc3cccc(C)c3)cc2)CC1` was 25000 nM; that for `O=C(c1ccc(OCCCc2cnc[nH]2)cc1)C1CC1` was 10000 nM; that for `Cc1ccc(C)c(OC2CCN(C(=O)C(C)n3ccnc3)CC2)c1` (centres undefined) was > 40000 nM (inactive). As to `CCc1ccc2nc(NC(=O)c3cc(N4CCOCC4)ccn3)sc2c1`, the IC50 is 500 nM. Under `Cc1nc(N2CCC(C(=O)N3CCC(O)(c4cccnc4)CC3)CC2)nc2ccc(C(C)C)cc12` stands 20000 nM; under `CCc1nn(-c2ncc(F)c(NC(C)C)n2)c(N)c1C1CCCCC1`, 10000 nM; under `Cc1ccc2nc(N(Cc3cccnc3)C(=O)CCc3ccccc3)sc2c1`, 13000 nM.

`O=C(Nc1nc2ccccc2[nH]1)c1ccc2nc[nH]c2c1`: the IC50 is > 40000 nM (inactive). As to `CCOc1ccc(CN(C)Cc2nc(N)nc(Nc3ccc(C)cc3)n2)cc1`, the concentration for half-maximal inhibition (IC50) is 2500 nM.

Turning to `O=C(c1ccccc1)N1CCC(C(=O)N2CCC(Oc3ccccc3Cl)CC2)CC1`, the IC50 is 500 nM. For the compound `Cc1cccc(NS(=O)(=O)c2cnc3sc(C)cn3c2=O)c1`, the IC50 was > 40000 nM (inactive). Under `Cn1cncc1CN1CCC2(CC1)COC(Cc1ccccc1)C2` (centres undefined) stands > 40000 nM (inactive); under `O=C(NCCc1csc(-c2ccc(F)cc2)n1)c1cccs1`, 250 nM; under `CNC(=O)C1Cc2ccccc2N1C(=O)Cc1ccccc1` (centres undefined), 630 nM.

On to `O=C(Nc1ccc(C(=O)N2CCCC2c2ccc3c(c2)OCCCO3)cc1)c1ccco1` (centres undefined), for which the IC50 is 200 nM. Under `C=CCOCC1Cn2nc([N+](=O)[O-])nc2O1` (centres undefined) stands > 40000 nM (inactive). Under `COc1ccc([N+](=O)[O-])cc1NC(=O)Nc1cccc(Cl)c1` stands 6300 nM; under `Cc1occc1C(=O)Nc1ccccc1C(=O)Nc1nccs1`, 400 nM. Consider `CC1=C(C(=O)Nc2ccc(Cl)cc2)C(c2ccncc2)n2ncc(C(=O)Nc3ccccc3)c2N1` (centres undefined), for which the half-inhibitory concentration (IC50) was 3200 nM. Regarding `O=S(=O)(c1cccc(CSc2nnc(-c3ccc4c(c3)OCO4)o2)c1)N1CCOCC1`, the IC50 was 32000 nM. Under `CCCc1cc(C(=O)Nc2ncc(-c3cccc(Br)c3)n2C)n[nH]1` stands 2500 nM; under `COc1ncc(-c2ccc3nccc(-c4ccncc4)c3c2)cc1NS(=O)(=O)C1CC1`, 200 nM; under `Cc1nnnn1-c1cccc(C(=O)N2CCC[C@@]3(C)c4ncncc4CCC23)c1` (some centres undefined), > 40000 nM (inactive). Under `CCOC(=O)c1cn[nH]c1S(=O)(=O)N1CCC1c1ccccc1` (centres undefined) stands 630 nM; under `O=c1oc2ccccc2n1C1CCN(Cc2ccccc2-c2cccnc2)CC1`, 40000 nM.

`CN1CCC(N(C)c2nccc(N3CCN(C(=O)c4cccc(-c5cccnc5)c4)CC3)n2)CC1`: the IC50 was 790 nM. As for `COc1cc(-c2noc(CC#N)n2)ccc1OC(F)F`, the IC50 was 630 nM. Under `Cc1ccc(CNC2CCN(C[C@@H]3Cn4c(=O)ccc5ccc(=O)n3c54)CC2)cc1F` stands 1600 nM; under `CN(C)Cc1ccc(N2CCC(NS(=O)(=O)c3ccc(Cl)cc3)CC2)cc1`, 25000 nM; under `CCOc1ccc(Nc2ccc(S(=O)(=O)N3CCN(C)CC3)cc2[N+](=O)[O-])cc1OCC`, 6300 nM.

With `O=C(NC(CO)c1ccc(F)cc1)c1ccc(-c2c[nH]c3ncccc23)s1` (centres undefined), the IC50 is 250 nM.

`c1cncc(CN(Cc2ccco2)Cc2cn[nH]c2-c2cccs2)c1`: the IC50 was 25000 nM. Under `COc1ccc2ncc(Cl)c(CCN3CC[C@H](NCc4cc5c(cn4)OCS5)[C@@H](O)C3)c2n1` stands 320 nM. For `CS(=O)(=O)c1ccc(Nc2nccc(Nc3n[nH]c4ccc(F)cc34)n2)c(F)c1`, the IC50 is 500 nM. The value for `CC(C)S(=O)(=O)c1ccc(-c2cnc(N)c3cc(-c4ccnc(N)n4)ccc23)cc1` was 200 nM. With `CNS(=O)(=O)c1ccccc1Nc1nc(Nc2cc(C)nn2C)ncc1Cl`, the half-maximal inhibitory concentration (IC50) was 63 nM. The value for `CN(Cc1ccc(C(N)=O)cc1)C(c1ccc(F)cc1)c1cccnc1` (centres undefined) was > 40000 nM (inactive). Under `CCC(=O)N1N=C(c2ccc3c(c2)CCCC3)Sc2c1ncn2C(=O)CC` stands 16000 nM; under `O=C(NCc1ccc(Cl)cc1)C1CN(C(=O)c2ccc(F)cc2)CCS1` (centres undefined), 790 nM. The value for `CC(=O)Nc1ccc(-c2cnc(N)c(-c3nc4ccc(F)cc4[nH]3)c2)cc1` was 630 nM; that for `O=C(CN1CCN(S(=O)(=O)c2cccc([N+](=O)[O-])c2)CC1)Nc1ccc(Oc2ccccc2)cc1` was 20000 nM.

On to `Cc1c([N+](=O)[O-])c(C(=O)Nc2sc3c(c2C#N)CCC(C)C3)nn1C` (centres undefined), for which the IC50 is > 40000 nM (inactive).

Turning to `CCOc1cnn(C)c(=O)c1Nc1ccc(C(=O)NCc2ccc(F)cc2)cc1`, the IC50 is > 40000 nM (inactive). Under `N#Cc1ccc(S(=O)(=O)N2CCN(Cc3cccc(-c4ccncc4)c3)CC2)cc1` stands > 40000 nM (inactive); under `CN(C)Cc1ccc(-c2ccc(S(=O)(=O)NCC3CCCO3)c(F)c2)cc1` (centres undefined), 25000 nM.

As for `O=c1[nH]cnc2c([C@@H]3O[C@H](CO)[C@@H](O)[C@H]3O)[nH]nc12`, the IC50 is 3.2 nM. Under `Cc1nc2c(-c3n[nH]c(-c4ccccc4N)n3)cccn2c1C` stands 1000 nM; under `O=C(COc1ncnc2cc([N+](=O)[O-])ccc12)NC(=O)NC1CCCCC1`, 6300 nM; under `O=[N+]([O-])c1cccc(Nc2cncc(-c3ccccc3CO)c2)c1`, > 40000 nM (inactive).

For `O=C(NCCc1csc(-c2ccc(F)cc2)n1)c1ccco1`, the IC50 was 400 nM. Turning to `O=C(NCC1CCCCN1C(=O)c1cccc2ccccc12)c1ccccc1` (centres undefined), the half-maximal inhibitory concentration (IC50) was 400 nM. As to `N#Cc1cc(-c2ccnc(Nc3cccc(CN4CCOCC4)c3)n2)ccc1NCCN`, the concentration for half-maximal inhibition (IC50) is 400 nM. With `Cc1nn(-c2nc3ccccc3s2)c2c1C(c1ccc(OCC(N)=O)cc1)SCC(=O)N2` (centres undefined), the IC50 is 20 nM. Regarding `CNC(=O)C1Cc2ccccc2N1C(=O)COc1cccc(OC)c1` (centres undefined), the IC50 was 630 nM. The value for `COc1cc(C2SCC(=O)Nc3c2c(C)nn3-c2nc3ccccc3s2)cc(OC)c1O` (centres undefined) was 6300 nM.

`Cc1nc2c(-c3cccs3)c(C)nn2c(NCCO)c1C`: the IC50 was 130 nM. The value for `COc1cnc2ccc(=O)n(CCN3CCC(NC/C=C/c4cc(F)ccc4F)CC3)c2c1` was 400 nM; that for `Cc1cc2cncn2c(C2CCCCN2C(=O)c2cccs2)n1` (centres undefined) was > 40000 nM (inactive); that for `O=C(Nc1nc(-c2ccccn2)cs1)C1CCc2ccccc2C1` (centres undefined) was 3200 nM. Under `Cn1nc([N+](=O)[O-])nc1Oc1ccc(C(=O)c2ccccc2)cc1` stands 20000 nM. The value for `COc1cc(NC(=O)Nc2cccc(CNC(=O)OC3CCCCC3)c2)ccc1-c1cnco1` was 250 nM. For `C[C@@H](Oc1cc(-n2cnc3ccc(C(O)CO)cc32)sc1C(N)=O)c1ccccc1C(F)(F)F` (some centres undefined), the IC50 was 400 nM. Consider `COc1cc(OC)cc(C(=O)N[C@@H](CC(C)C)C(=O)NC2(C#N)CC2)c1`, for which the IC50 is 500 nM. Under `COc1cc(Cl)c(C)cc1NC(=O)c1ccc([N+](=O)[O-])s1` stands 500 nM.

As to `COc1ccc(NC(=O)c2ccc(NC(=O)CN(c3ccccc3C)S(C)(=O)=O)cc2)cc1`, the half-inhibitory concentration (IC50) was 200 nM. With `Cc1[nH]n2c(=O)c3c(nc2c1-c1ccc(Br)cc1)CCCC3`, the IC50 was 400 nM. Under `Clc1ccc(CN2CCN(C3=NCCN3)CC2)cc1Cl` stands > 40000 nM (inactive). Under `CC(C)c1sc(Cl)nc1C(=O)NCCc1nc(C(=O)Nc2ccc3c(c2)OCO3)cs1` stands 25000 nM. The value for `COc1cccc(NS(=O)(=O)c2ccc3[nH]cc(C(=O)NCCC(C)C)c(=O)c3c2)c1` was 320 nM.
